From ChEMBL document CHEMBL1201862, “PubChem BioAssay data set” (2004) come the findings set out here.

Assay [1] has as its target Dual specificity protein phosphatase 6 (Rattus norvegicus, UniProt Q64346). Kind of assay: MKP-3 phosphatase inhibitors, primary screen, biochemical, rat enzyme, in vitro (AID 425).
The target of assay [2] is T1, Dual specificity protein phosphatase 3 (Homo sapiens, UniProt P51452). Kind of assay: VHR1 phosphatase inhibitors, biochemical (AID 1878).
In assay [3] the target is Cytochrome P450 2C9 (Homo sapiens, UniProt P11712).
Chain of Cytochrome P450 2C9 (P11712 whole entry): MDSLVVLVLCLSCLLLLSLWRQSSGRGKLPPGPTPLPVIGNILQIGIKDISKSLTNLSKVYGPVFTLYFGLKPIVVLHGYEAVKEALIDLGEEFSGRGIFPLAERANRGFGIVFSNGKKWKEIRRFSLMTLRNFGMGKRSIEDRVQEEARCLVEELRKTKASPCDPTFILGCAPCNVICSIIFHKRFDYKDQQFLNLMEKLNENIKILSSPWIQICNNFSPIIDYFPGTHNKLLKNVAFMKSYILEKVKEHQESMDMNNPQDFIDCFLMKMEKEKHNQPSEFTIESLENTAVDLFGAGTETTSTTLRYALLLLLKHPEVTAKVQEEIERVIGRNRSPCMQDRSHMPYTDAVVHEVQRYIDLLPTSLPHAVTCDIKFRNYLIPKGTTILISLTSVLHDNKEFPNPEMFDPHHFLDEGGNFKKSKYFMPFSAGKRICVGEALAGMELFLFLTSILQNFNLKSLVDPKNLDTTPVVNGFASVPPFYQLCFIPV
For assay [4], the target named is T1, Dual specificity protein phosphatase 3. In words: VHR1 phosphatase inhibitors, primary screen, biochemical, absorbance, uHTS (AID 1654).
In assay [5] the target is T2, Nucleotide-binding oligomerization domain-containing protein 2 (Homo sapiens, UniProt Q9HC29). Kind of assay: NOD2 inhibitors, SAR follow-up, set 2 (AID 2475). Format: functional.
T2 sequence (Q9HC29 whole entry, the tested form may be a part): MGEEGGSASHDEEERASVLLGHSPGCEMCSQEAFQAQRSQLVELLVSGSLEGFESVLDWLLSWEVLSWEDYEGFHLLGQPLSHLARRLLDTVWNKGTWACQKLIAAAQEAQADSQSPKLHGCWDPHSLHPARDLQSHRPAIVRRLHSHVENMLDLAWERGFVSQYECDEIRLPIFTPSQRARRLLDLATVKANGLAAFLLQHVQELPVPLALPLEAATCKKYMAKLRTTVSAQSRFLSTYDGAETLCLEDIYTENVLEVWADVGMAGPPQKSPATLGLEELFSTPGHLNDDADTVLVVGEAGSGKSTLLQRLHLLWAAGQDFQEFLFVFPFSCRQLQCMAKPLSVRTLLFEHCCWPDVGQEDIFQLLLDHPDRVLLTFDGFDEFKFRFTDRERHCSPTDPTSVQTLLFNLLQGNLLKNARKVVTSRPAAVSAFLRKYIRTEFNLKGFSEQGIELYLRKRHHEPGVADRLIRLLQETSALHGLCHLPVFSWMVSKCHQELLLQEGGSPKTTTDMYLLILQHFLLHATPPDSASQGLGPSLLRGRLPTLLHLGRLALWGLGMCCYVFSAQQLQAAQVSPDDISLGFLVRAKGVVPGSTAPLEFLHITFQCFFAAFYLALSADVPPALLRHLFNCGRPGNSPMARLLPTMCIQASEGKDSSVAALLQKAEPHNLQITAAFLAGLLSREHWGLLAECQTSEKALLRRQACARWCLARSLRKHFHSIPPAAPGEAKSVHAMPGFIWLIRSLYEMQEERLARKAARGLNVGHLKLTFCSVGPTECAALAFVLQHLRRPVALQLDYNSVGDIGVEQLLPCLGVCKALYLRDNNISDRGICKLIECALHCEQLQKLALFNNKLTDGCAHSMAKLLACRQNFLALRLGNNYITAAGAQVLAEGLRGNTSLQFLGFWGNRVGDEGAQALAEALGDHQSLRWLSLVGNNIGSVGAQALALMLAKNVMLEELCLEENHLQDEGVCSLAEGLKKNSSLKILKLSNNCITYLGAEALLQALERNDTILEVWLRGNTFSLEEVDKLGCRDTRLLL
Assay [6] deals with T3, Nucleotide-binding oligomerization domain-containing protein 1 (Homo sapiens, UniProt Q9Y239).
T3 sequence (Q9Y239 whole entry): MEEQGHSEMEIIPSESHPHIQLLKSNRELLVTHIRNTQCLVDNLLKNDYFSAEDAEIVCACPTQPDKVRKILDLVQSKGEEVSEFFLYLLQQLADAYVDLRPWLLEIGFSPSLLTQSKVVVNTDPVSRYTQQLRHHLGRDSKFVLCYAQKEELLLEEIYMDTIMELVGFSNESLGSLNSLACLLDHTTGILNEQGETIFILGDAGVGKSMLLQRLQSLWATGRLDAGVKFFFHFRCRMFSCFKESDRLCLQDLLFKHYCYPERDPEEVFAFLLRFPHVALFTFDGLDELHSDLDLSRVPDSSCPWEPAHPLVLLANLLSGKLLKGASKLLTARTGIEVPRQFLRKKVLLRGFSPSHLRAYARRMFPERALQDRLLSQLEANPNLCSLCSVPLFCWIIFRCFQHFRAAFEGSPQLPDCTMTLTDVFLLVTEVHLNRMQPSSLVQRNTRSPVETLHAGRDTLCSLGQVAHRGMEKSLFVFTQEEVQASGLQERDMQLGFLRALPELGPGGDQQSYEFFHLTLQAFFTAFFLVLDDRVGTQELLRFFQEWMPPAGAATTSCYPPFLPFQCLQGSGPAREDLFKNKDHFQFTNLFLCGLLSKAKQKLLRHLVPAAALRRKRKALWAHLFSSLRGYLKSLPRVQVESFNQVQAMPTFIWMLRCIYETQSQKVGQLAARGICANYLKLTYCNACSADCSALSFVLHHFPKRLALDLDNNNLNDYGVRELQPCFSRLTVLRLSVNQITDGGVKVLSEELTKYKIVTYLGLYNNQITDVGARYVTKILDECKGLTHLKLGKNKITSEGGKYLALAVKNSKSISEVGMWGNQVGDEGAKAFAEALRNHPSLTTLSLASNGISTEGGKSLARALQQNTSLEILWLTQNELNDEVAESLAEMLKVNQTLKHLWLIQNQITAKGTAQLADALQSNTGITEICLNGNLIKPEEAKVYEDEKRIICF
In words: SAR analysis of compounds that inhibit NOD1 - Set 3. [Related pubchem assays (depositor defined):AID1566, AID1575, AID1578, AID1849, AID1852, AID2333, AID2335, AID2466]. Format: functional.

The target of assay [7] is T4, Interleukin-8 (Homo sapiens, UniProt P10145).
T4 sequence (P10145 whole entry): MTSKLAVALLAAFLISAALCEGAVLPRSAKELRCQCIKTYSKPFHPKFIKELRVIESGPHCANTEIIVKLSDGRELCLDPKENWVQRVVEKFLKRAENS
Kind of assay: SAR analysis of Tumor necrosis factor alpha (TNF-alpha) induced IL-8 secretion in MCF-7/NOD1 cells - Set 2. [Related pubchem assays (depositor defined):AID1575, AID2250, AID2260]. Format: functional, cell-based.

Assay [8] has as its target Tumor necrosis factor (Homo sapiens, UniProt P01375). Kind of assay: TNFa-triggered NF-kB activation inhibitors, SAR follow-up, cell-based, set 3 (AID 2801). Format: functional.
Assay [9] deals with T5, Streptokinase A (Streptococcus pyogenes serotype M1, UniProt P10520).
T5 sequence (P10520 whole entry): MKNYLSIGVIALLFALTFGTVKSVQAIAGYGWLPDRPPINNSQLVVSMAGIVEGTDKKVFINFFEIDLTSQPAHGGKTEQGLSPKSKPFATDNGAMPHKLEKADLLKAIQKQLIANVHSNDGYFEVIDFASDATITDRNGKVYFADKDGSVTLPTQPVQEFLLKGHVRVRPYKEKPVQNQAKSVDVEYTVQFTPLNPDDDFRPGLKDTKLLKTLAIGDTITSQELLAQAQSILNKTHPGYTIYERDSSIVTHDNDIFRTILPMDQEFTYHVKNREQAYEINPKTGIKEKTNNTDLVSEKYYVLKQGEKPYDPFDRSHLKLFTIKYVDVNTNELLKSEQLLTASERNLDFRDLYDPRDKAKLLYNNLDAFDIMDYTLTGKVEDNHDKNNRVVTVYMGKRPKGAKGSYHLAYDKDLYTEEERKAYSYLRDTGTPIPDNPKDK
Kind of assay: S. pyogenes streptokinase expression inhibitors, potency, dose response, plasminogen activation absorbance, OD405 (AID 1914).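 Also: secreted streptokinase activity via plasminogen activation per viability signal from cell pellet.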 Format: functional, Streptococcus pyogenes M1 GAS.

Assay [10] concerns HEK293. In words: SAR analysis of compounds that are cytotoxic to HEK293 - Set 3. [Related pubchem assays (depositor defined):AID1575, AID1578, AID1848, AID1849, AID2001, AID2333, AID2334, AID2335, AID2337, AID2469]. Format: functional, cell-based. Particulars: Homo sapiens.
The target of assay [11] is T2, Nucleotide-binding oligomerization domain-containing protein 2. In words: NOD2 signaling inhibitors, analog potency, SAR follow-up, cell-based, set 3 (AID 2799). Format: functional.
Assay [12] has as its target T3, Nucleotide-binding oligomerization domain-containing protein 1. Kind of assay: SAR analysis of compounds that inhibit NOD1 - Set 2. [Related pubchem assays (depositor defined):AID1566, AID1575, AID1578, AID1849, AID1852, AID2333, AID2335, AID2798]. Format: functional.
For assay [13], the system named is HEK293. In words: SAR analysis of compounds that are cytotoxic to HEK293 - Set 2. [Related pubchem assays (depositor defined):AID1575, AID1578, AID1849, AID2001, AID2333, AID2334, AID2335, AID2337, AID2800]. Format: functional, cell-based. The following applies: Homo sapiens.
The target in assay [14] is T3, Nucleotide-binding oligomerization domain-containing protein 1. In words: SAR analysis of NF-kappaB dependent luciferase using DAP as an inducer - Set 2. [Related pubchem assays (depositor defined):AID1566, AID1575, AID1578, AID1579, AID1849, AID1852, AID2264]. Format: functional.
The subject of assay [15] is Streptococcus sp. 'group A'. Kind of assay: growth inhibition of control SK(-) GAS strain, dose response, counter-screen for streptokinase expression inhibitor project, luminescence, kanamycin, BacTiterGlo, confirmation (AID 1900). Format: functional, organism-based.
The target of assay [16] is T4, Interleukin-8. Kind of assay: SAR analysis of GM-Tri-DAP induced IL-8 secretion in MCF-7/NOD1 cells - Set 2. [Related pubchem assays (depositor defined):AID1575, AID1578, AID2333]. Format: functional, cell-based.
Assay [17] concerns Streptococcus. Kind of assay: Group A Streptococcus viability loss, dose response, counter-screen for streptokinase expression inhibitor project, luminescence, BacTiterGlo (AID 1915).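 Also: potency for reduction of bacterial viability or growth.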 Format: functional, organism-based.

The source made the active and inactive calls. Some results are limits rather than exact numbers.

T1 sequence (P51452 whole entry): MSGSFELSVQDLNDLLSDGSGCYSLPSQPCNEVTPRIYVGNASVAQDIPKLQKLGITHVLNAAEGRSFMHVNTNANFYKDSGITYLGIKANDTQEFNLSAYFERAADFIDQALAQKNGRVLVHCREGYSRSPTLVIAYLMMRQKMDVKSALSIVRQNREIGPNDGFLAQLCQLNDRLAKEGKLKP
Chain of Tumor necrosis factor (P01375 whole entry): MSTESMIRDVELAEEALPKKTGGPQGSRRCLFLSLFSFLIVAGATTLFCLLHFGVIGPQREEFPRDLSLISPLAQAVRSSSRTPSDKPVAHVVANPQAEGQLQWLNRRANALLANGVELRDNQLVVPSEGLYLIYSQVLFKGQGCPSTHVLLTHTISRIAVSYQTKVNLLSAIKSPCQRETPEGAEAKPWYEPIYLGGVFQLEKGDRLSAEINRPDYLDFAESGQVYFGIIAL
Chain of Dual specificity protein phosphatase 6 (Q64346 whole entry): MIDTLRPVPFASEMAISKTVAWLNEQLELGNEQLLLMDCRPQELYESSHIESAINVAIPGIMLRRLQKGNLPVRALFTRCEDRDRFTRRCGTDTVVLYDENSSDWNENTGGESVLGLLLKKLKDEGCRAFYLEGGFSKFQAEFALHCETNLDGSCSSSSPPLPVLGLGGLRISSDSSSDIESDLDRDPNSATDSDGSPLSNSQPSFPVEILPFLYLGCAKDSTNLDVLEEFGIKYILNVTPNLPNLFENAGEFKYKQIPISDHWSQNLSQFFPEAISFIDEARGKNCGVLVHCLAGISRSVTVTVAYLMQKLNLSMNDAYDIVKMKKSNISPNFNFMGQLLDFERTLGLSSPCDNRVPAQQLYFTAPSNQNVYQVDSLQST

One may read the IC50 as the concentration that inhibits the measured activity by half. What is called AC50 is the midpoint of the concentration-response curve, whichever way the signal moves. Take `CCC(=S)/C=C1\Sc2ccccc2N1CCCS(=O)(=O)O`: the results for the IC50 in [1], in [2] and in assay [4] were > 158 µM (not active), 8.29 µM (active) and 4.33 µM (active), respectively. Also, the AC50 in assay [3] is 22.4 µM (inconclusive).

Broadly, the EC50 is the concentration needed to bring the measured effect to its halfway point. As to `CCCCn1c(SCC(=O)c2ccccc2)nc2c1c(=O)[nH]c(=O)n2C`, the IC50 is > 20 µM (inactive) in assay [5]; > 20 µM (inactive) in assay [6]; > 25 µM (inactive) in [7]; > 20 µM (inactive) in [8]; > 20 µM (inactive) in assay [10]; > 20 µM (inactive) in [11]. In addition, the IC50 in assay [12] is > 20 µM (inactive); in assay [13] it was > 20 µM (inactive); in assay [14], > 25 µM (inactive); in [16], > 25 µM (inactive). Also, the EC50 is > 150 µM (not active) in assay [9], 3.37 µM (active) in assay [15] and 18.4 µM (active) in assay [17].
